Experimental data: patent US11548899B2, “Fused 1,4-oxazepines and related analogs as BET bromodomain inhibitors” (THE REGENTS OF THE UNIVERSITY OF MICHIGAN, priority 2016, dated 2023)
Values joined by “and” are separate entries in the source; they are usually repeats but may differ in a detail not shown here. Equal entries are not always repeated. Where two headings read alike, the source gives them in different places.

Experiments:
recombinant BRD4 BD1 = target: T1, recombinant BRD4 BD1 (Homo sapiens, UniProt O60885); assay: Competitive fluorescence-polarization (FP) binding assay, BRD4 BD1; details: protein 10 nM, probe 1.5 nM
T1 construct: recombinant BRD4 BD1 and BRD4 BD2 proteins
Protocol: Fluorescence Polarization (FP) competitive binding studies were carried out using a FAM labeled fluorescent probe, see Cpd. […] Equilibrium dissociation constants (Kd) values of the fluorescent probe to BRD4 BD1 and BD2 proteins were determined from protein saturation experiments by monitoring the total fluorescence polarization of mixtures composed with the fluorescent probe at a fixed concentration and proteins with increasing concentrations up to full saturation. […] Plates were incubated at room temperature for 30 minutes with gentle shaking to assure equilibrium.
The IC50 and Ki values of compounds were determined in a competitive binding experiment. […] Mixtures of 10 μl of the tested compounds in assay buffer with 40% Ethylene Glycol and 190 μl of preincubated protein/probe complex solution in the assay buffer (100 mM potassium phosphate, pH 6.5, 0.01% Triton X-100) were added into assay plates which were incubated at room temperature for 30 minutes with gentle shaking. Final concentrations of proteins were 10 and 6 nM in assays for BRD4 BD1 and BD2, respectively. […] FP values were measured as described above. IC50 values were determined by nonlinear regression fitting of the competition curves.

MOLM-13 = assay: Cell growth inhibition, 4-day proliferation assay, MOLM-13; type: cell-based; details: read-out: Cell Viability (IC50, μM) MOLM-13
Protocol: The effect of representative Compounds of the Disclosure on cell viability was determined in a 4-day proliferation assay. Cells were maintained in the appropriate culture medium with 10% FBS at 37° C. and an atmosphere of 5% CO2. All the cell lines were used within three months of thawing fresh vials.
Cells were seeded in 96-well flat bottom (Corning COSTAR, Corning, N.Y., cat #3595) or white opaque cell culture plates (BD Falcon, cat #353296) at a density of 3,000-10,000 cells/well in 75 μl of culture medium. Compounds were serially diluted in the appropriate medium, and 75 μl of the diluted compounds were added to the appropriate wells of the cell plate. After the addition of compounds, the cells were incubated at 37° C. in an atmosphere of 5% CO2 for 4 days. Cell viability was determined using the CellTiter-Glo® Luminescent Cell Viability Assay Kit (Promega, Madison, Wis.) for leukemia cells and WST (2-(2-methoxy-4-nitrophenyl)-3-(4-nitrophenyl)-5-(2,4-disulfophenyl)-2H-tetrazolium, monosodium salt) Cell Counting-8 Kit (Dojindo Molecular Technologies, Inc., Rockville, Md.) for adhenrent cells according to the manufacturers' instructions. […]
For CellTiter-Glo assay (suspension cells), 100 μl of CellTiter-Glo® Reagent was added to each well, and then the plates were incubated at room temperature for 10-20 minutes. The luminescent signal was measured using a Tecan Infinite M1000 multimode microplate reader (Tecan, Morrisville, N.C.). The readings were normalized to the DMSO-treated cells and the IC50 was calculated by nonlinear regression (four parameters sigmoid fitted with variable slope, least squares fit, and no constraint) analysis using the GraphPad Prism 5 software. See US 2014/0256706.

recombinant BRD4 BD2 = target: T2, recombinant BRD4 BD2 (Homo sapiens, UniProt O60885); assay: Competitive fluorescence-polarization (FP) binding assay, BRD4 BD2; details: protein 6 nM, probe 1.5 nM
T2 construct: recombinant BRD4 BD1 and BRD4 BD2 proteins
Protocol: Fluorescence Polarization (FP) competitive binding studies were carried out using a FAM labeled fluorescent probe, see Cpd. […] Equilibrium dissociation constants (Kd) values of the fluorescent probe to BRD4 BD1 and BD2 proteins were determined from protein saturation experiments by monitoring the total fluorescence polarization of mixtures composed with the fluorescent probe at a fixed concentration and proteins with increasing concentrations up to full saturation. Serial dilutions of testing proteins were mixed with the fluorescent probe to a final volume of 200 μl in the assay buffer (100 mM phosphate buffer, pH=6.5, 0.01% Triton X-100 (Sigma, 282103) being added right before assays). Final fluorescent probe concentration was 1.5 nM for both proteins. Plates were incubated at room temperature for 30 minutes with gentle shaking to assure equilibrium. FP values in millipolarization units (mP) were measured using the Infinite M-1000 plate reader (Tecan U.S., Research Triangle Park, N.C.) in Microfluor 1 96-well, black, round-bottom plates (Thermo Scientific, Waltham, Mass.) at an excitation wavelength of 485 nm and an emission wavelength of 530 nm.
The IC50 and Ki values of compounds were determined in a competitive binding experiment. […] Mixtures of 10 μl of the tested compounds in assay buffer with 40% Ethylene Glycol and 190 μl of preincubated protein/probe complex solution in the assay buffer (100 mM potassium phosphate, pH 6.5, 0.01% Triton X-100) were added into assay plates which were incubated at room temperature for 30 minutes with gentle shaking. Final concentrations of proteins were 10 and 6 nM in assays for BRD4 BD1 and BD2, respectively. Final probe concentration is 1.5 nM in both assays. […] FP values were measured as described above. IC50 values were determined by nonlinear regression fitting of the competition curves.

[1] = FP competitive binding, read-out: IC50 (nM) BRD4 BD1
[2] = Homo sapiens, MOLM-13, 96 h, 4 days incubation, MOLM-13 cells

Row | IC50 (recombinant BRD4 BD1; [1]) | IC50 (MOLM-13; [2]) [µM] | IC50 (recombinant BRD4 BD2) | Compound | further results
1 | 229 nM | 2.8 | 326 nM | Cc1sc2c(c1Cc1ccccc1)CN(C(=O)OCc1ccccc1)[C@H](C)c1nnc(C)n1-2 [Cpd. No. 16, benzyl (R)-3-benzyl-2,6,9-trimethyl-4H-thieno[3,2-f][1,2,4]triazolo[4,3-a][1,4]diazepine-5(6H)-carboxylate] | 
2 | 425 nM and 585 nM | 2.7 | 146 nM and 247 nM | Cc1nnc2n1-c1cccc(C3CCCc4ccccc43)c1COC2 (centres unmarked) [Cpd. No. 50, 1-methyl-7-(1,2,3,4-tetrahydronaphthalen-1-yl)-4,6-dihydrobenzo[e][1,2,4]triazolo[3,4-c][1,4]oxazepine] | 
3 | 602 nM | 2.2 |  | Cc1sc2c(c1Cc1ccccc1)CN(C)Cc1nnc(C)n1-2 [Cpd. No. 35, 3-benzyl-2,5,9-trimethyl-5,6-dihydro-4H-thieno[3,2-f][1,2,4]triazolo[4,3-a][1,4]diazepine] | 
4 | 1080 nM |  | 622 nM | Cc1sc2c(c1Cc1ccccc1)CN[C@H](C)c1nnc(C)n1-2 [Cpd. No. 17, (R)-3-benzyl-2,6,9-trimethyl-5,6-dihydro-4H-thieno[3,2-f][1,2,4]triazolo[4,3-a][1,4]diazepine] | 
5 | 5450 nM |  | 1060 nM | Cc1nnc2n1-c1cccc(Sc3ccccc3)c1COC2 [Cpd. No. 39, 1-methyl-7-(phenylthio)-4,6-dihydrobenzo[e][1,2,4]triazolo[3,4-c][1,4]oxazepine] | 
6 | 611 nM | > 5 | 2610 nM | Cc1sc2c(c1Cc1ccccc1)CN(CC1CC1)[C@@H](C)c1nnc(C)n1-2 [Cpd. No. 27, (S)-3-benzyl-5-(cyclopropylmethyl)-2,6,9-trimethyl-5,6-dihydro-4H-thieno[3,2-f][1,2,4]triazolo[4,3-a][1,4]diazepine] | 
7 | 14500 nM |  | 1460 nM | Cc1nnc2n1-c1cccc(Nc3ccccc3)c1COC2 [Cpd. No. 37, 1-methyl-N-phenyl-4,6-dihydrobenzo[e][1,2,4]triazolo[3,4-c][1,4]oxazepin-7-amine] | 
8 | 23800 nM |  | 17700 nM | COC(=O)C[C@H]1c2nnc(C)n2-c2sc(C)c(Cc3ccccc3)c2CN1C(=O)OCc1ccccc1 [Cpd. No. 21, benzyl (S)-3-benzyl-6-(2-methoxy-2-oxoethyl)-2,9-dimethyl-4H-thieno[3,2-f][1,2,4]triazolo[4,3-a][1,4]diazepine-5(6H)-carboxylate] | 
9 | 2430 nM |  | 3210 nM | CCC(=O)N1Cc2c(sc(C)c2Cc2ccccc2)-n2c(C)nnc2[C@@H]1C [Cpd. No. 19, (S)-1-(3-benzyl-2,6,9-trimethyl-4H-thieno[3,2-f][1,2,4]triazolo[4,3-a][1,4]diazepin-5(6H)-yl)propan-1-one] | 
10 | 170 nM |  | 338 nM | Cc1sc2c(c1Cc1ccccc1)COC(CC(=O)OC(C)(C)C)c1nnc(C)n1-2 (centres unmarked) [Cpd. No. 115, tert-butyl 2-(3-benzyl-2,9-dimethyl-4H,6H-thieno[2,3-e][1,2,4]triazolo[3,4-c][1,4]oxazepin-6-yl)acetate] | 
11 | 10300 nM |  | 5020 nM | Cc1nnc2n1-c1cccc(S(=O)(=O)c3ccccc3)c1COC2 [Cpd. No. 42, 1-methyl-7-(phenylsulfonyl)-4,6-dihydrobenzo[e][1,2,4]triazolo[3,4-c][1,4]oxazepine] | 
12 | 249 nM |  | 297 nM | Cc1sc2c(c1Cc1ccccc1)CO[C@H](C)c1nnc(C)n1-2 [Cpd. No. 114, (R)-3-benzyl-2,6,9-trimethyl-4H,6H-thieno[2,3-e][,2,4]triazolo[3,4-c][1,4]oxazepine] | 
13 |  | 1 |  | C#Cc1sc2c(c1Cc1ccccc1)COCc1nnc(C)n1-2 [Cpd. No. 33, 3-benzyl-2-ethynyl-9-methyl-4H,6H-thieno[2,3-e][1,2,4]triazolo[3,4-c][1,4]oxazepine] | 
14 | 1550 nM |  | 1370 nM | Cc1nnc2n1-c1cccc(Cc3ccc(OC(F)(F)F)cc3)c1COC2 [Cpd. No. 45, 1-methyl-7-(4-(trifluoromethoxy)benzyl)-4,6-dihydrobenzo[e][1,2,4]triazolo[3,4-c][1,4]oxazepine] | 
15 | 256 nM |  | 207 nM | Cc1sc2c(c1C1=CCCc3ccccc31)COCc1nnc(C)n1-2 [Cpd. No. 51, 3-(3,4-dihydronaphthalen-1-yl)-2,9-dimethyl-4,6-dihydrothieno[2,3-e][1,2,4]triazolo[3,4-c][1,4]oxazepine] | 
16 | 1070 nM and 1200 nM |  | 1210 nM and 1350 nM | Cc1sc2c(c1Cc1ccccc1)CN[C@@H](C)c1nnc(C)n1-2 [Cpd. No. 13, (S)-3-benzyl-2,6,9-trimethyl-5,6-dihydro-4H-thieno[3,2-f][1,2,4]triazolo[4,3-a][1,4]diazepine] | 
17 | 3530 nM |  | 328 nM | C=C(c1ccccc1)c1cccc2c1COCc1nnc(C)n1-2 [Cpd. No. 43, 1-methyl-7-(1-phenylvinyl)-4,6-dihydrobenzo[e][1,2,4]triazolo[3,4-c][1,4]oxazepine] | 
18 | 1200 nM |  | 303 nM | Cc1nnc2n1-c1cccc(C3CCc4ccccc43)c1COC2 (centres unmarked) [Cpd. No. 47, 7-(2,3-dihydro-1H-inden-1-yl)-1-methyl-4,6-dihydrobenzo[e][1,2,4]triazolo[3,4-c][1,4]oxazepine] | 
19 | 48600 nM |  | 83700 nM | Cc1sc2c(c1Br)CN(C(=O)OCc1ccccc1)[C@@H](C)c1nnc(C)n1-2 [Cpd. No. 147, benzyl (S)-3-bromo-2,6,9-trimethyl-4H-thieno[3,2-f][1,2,4]triazolo[4,3-a][1,4]diazepine-5(6H)-carboxylate] | 
20 | 4400 nM |  | 238 nM | Cc1nnc2n1-c1cccc(C3=CCc4ccccc43)c1COC2 [Cpd. No. 44, 7-(1H-inden-3-yl)-1-methyl-4,6-dihydrobenzo[e][1,2,4]triazolo[3,4-c][1,4]oxazepine] | 
21 | 18000 nM |  | 16600 nM | Cc1nnc2n1-c1cccc([S+]([O-])c3ccccc3)c1COC2 (centres unmarked) [Cpd. No. 41, 1-methyl-7-(phenylsulfinyl)-4,6-dihydrobenzo[e][1,2,4]triazolo[3,4-c][1,4]oxazepine] | 
22 | 209 nM and 265 nM and 352 nM | 1.4 |  | Cc1nnc2n1-c1sc(Br)c(Cc3ccccc3)c1COC2 [Cpd. No. 31, 3-benzyl-2-bromo-9-methyl-4H,6H-thieno[2,3-e][1,2,4]triazolo[3,4-c][1,4]oxazepine] | IC50 (MOLM-13; 4 days incubation, MOLM-13 cells): 1.7 µM
23 | 2500 nM |  | 9010 nM | COC(=O)C[C@@H]1NCc2c(sc(C)c2Cc2ccccc2)-n2c(C)nnc21 [Cpd. No. 23, methyl(S)-2-(3-benzyl-2,9-dimethyl-5,6-dihydro-4H-thieno[3,2-f][1,2,4]triazolo[4,3-a][1,4]diazepin-6-yl)acetate] | 
24 |  | 1 |  | Cc1sc2c(c1Cc1ccccc1)CN(C)[C@H](C)c1nnc(C)n1-2 [Cpd. No. 34, (R)-3-benzyl-2,5,6,9-tetramethyl-5,6-dihydro-4H-thieno[3,2-f][1,2,4]triazolo[4,3-a][1,4]diazepine] | 
25 | 294 nM | 1.9 |  | Cc1nnc2n1-c1sc(-c3ccc(N)nc3)c(Cc3ccccc3)c1COC2 [Cpd. No. 32, 5-(3-benzyl-9-methyl-4H,6H-thieno[2,3-e][1,2,4]triazolo[3,4-c][1,4]oxazepin-2-yl)pyridin-2-amine] | 
26 |  |  |  | Cc1nnc2n1-c1ccc(Cl)c(Cc3ccccc3)c1COC2 [Cpd. No. 71, 7-benzyl-8-chloro-1-methyl-4,6-dihydrobenzo[e][1,2,4]triazolo[3,4-c][1,4]oxazepine] | IC50 (recombinant BRD4 BD1; IC50 (nM) BRD4 BD1, FP competitive binding): 864 nM; IC50 (MOLM-13; Homo sapiens, MOLM-13, 96 h): 3.8 µM
27 | 9600 nM |  | 4460 nM | Cc1sc2c(c1Cc1ccccc1)CN(S(=O)(=O)CCc1ccccc1)[C@@H](C)c1nnc(C)n1-2 [Cpd. No. 26, (S)-3-benzyl-2,6,9-trimethyl-5-(phenethylsulfonyl)-5,6-dihydro-4H-thieno[3,2-f][1,2,4]triazolo[4,3-a][1,4]diazepine] | 
28 | 1420 nM and 1260 nM |  | 367 nM | Cc1nnc2n1-c1cccc(Cc3ccccc3)c1COC2 [Cpd. No. 38, 7-benzyl-1-methyl-4,6-dihydrobenzo[e][1,2,4]triazolo[3,4-c][1,4]oxazepine] | 
29 | > 10000 nM |  | > 10000 nM | Cc1nnc2n1-c1cccc(C(=O)c3ccccc3)c1COC2 [Cpd. No. 52, (1-methyl-4,6-dihydrobenzo[e][1,2,4]triazolo[3,4-c][1,4]oxazepin-7-yl)(phenyl)methanone] | 
30 | 234 nM and 366 nM | 1.1 |  | Cc1nnc2n1-c1ccc(-c3cnn(C)c3)c(Cc3ccccc3)c1COC2 [Cpd. No. 73, 7-benzyl-1-methyl-8-(1-methyl-1H-pyrazol-4-yl)-4,6-dihydrobenzo[e][1,2,4]triazolo[3,4-c][1,4]oxazepine] | 
